Laboratory results published in ChEMBL document CHEMBL2417360, “Parguerene and precarriebowmide, two classes of lipopeptides from the marine cyanobacterium Moorea producens” (J Nat Prod, 2013).

Assay: Cytotoxicity against human H460 cells after 48 hrs by MTT assay
Format: functional, cell-based
Details: NCI-H460, 48 h

## CCC[C@H]1NC(=O)[C@H](C)NC(=O)[C@H](CC(C)C)N(C)C(=O)[C@H](Cc2ccccc2)NC(=O)[C@H](CCSC)NC(=O)[C@@H](Cc2ccccc2)N(C)C(=O)[C@@H](C(C)C)OC(=O)[C@H]1C [PRECARRIEBOWMIDE]
  IC50: > 10 µM
